From publication PMC10480608 (Heliyon, 2023) come the findings set out here.

For test [1], the system named is MCF-7 (human breast adenocarcinoma). Put plainly: MTT cytotoxicity assay, MCF-7. The class given is cell-based. As to conditions: Homo sapiens, MCF7, 72 h, read-out: IC50 ± SD, MCF7. (Tetrazolium assays rely on reduction of a dye to a coloured formazan, in cell work by metabolically active cells.)
Test [2] has as its system normal human dermal/fibroblasts. In words: MTT cytotoxicity assay, normal fibroblasts. As to conditions: Homo sapiens, Fibroblast, 72 h, read-out: IC50 ± SD, Fibro dental. Format: cell-based.
The subject of test [3] is HepG2 (hepatocellular carcinoma). In words: MTT cytotoxicity assay, HepG2. Format: cell-based, human. As to conditions: Homo sapiens, HepG2, 72 h, read-out: IC50 ± SD, HEPG-2.
Test [4] concerns PC3 (human prostate carcinoma). In words: MTT cytotoxicity assay, PC3. Format: cell-based. As to conditions: 72 h, read-out: IC50 ± SD, PC-3.

Molecules are shown by their SMILES.

With `Cc1nc([N+](=O)[O-])cn1Cc1ccccc1` [Compound 2, N1-benzyl-2-methyl-4-nitroimidazole], in test [1], the IC50 (as a rule, the concentration that gives 50% inhibition) came out at 68 ± 20 µM.
Consider `Cc1nc([N+](=O)[O-])c(Br)n1Cc1ccccc1` [Compound 3, 5-bromo-N1-benzyl-2-methyl-4-nitroimidazole], for which the 50% inhibitory concentration (IC50) in test [2], in test [3] and in test [4] was greater than 500 µM in each case.
In the case of `C#CCN1CCN(c2c([N+](=O)[O-])nc(C)n2Cc2ccccc2)CC1` [Compound 5, 1-(N1-benzyl-2-methyl-4-nitro-imidazole-5-yl)-4-(prop-2-yn-1-yl)piperazine], the half-inhibitory concentration (IC50) is greater than 500 µM in test [2] and 84 ± 2 µM in test [1].
The corresponding values for `Cc1nc([N+](=O)[O-])c(N2CCN(Cc3cn(Cc4ccccc4)nn3)CC2)n1Cc1ccccc1` [Compound 9a, 1-((N1-benzyl-1H-1,2,3-triazol-4-yl)methyl)-4-(N1-benzyl-2-methyl-4-nitro-imidazole-5-yl)piperazine] are greater than 500 µM and 55 ± 40 µM.
For the compound `Cc1nc([N+](=O)[O-])c(N2CCN(Cc3cn(Cc4ccc(Br)cc4)nn3)CC2)n1Cc1ccccc1` [Compound 9b, 1-(N1-benzyl-2-methyl-4-nitro-imidazole-5-yl)-4-((N1-(4-bromobenzyl)-1H-1,2,3-triazol-4-yl)methyl)piperazine], the half-inhibitory concentration (IC50) in test [2] is greater than 500 µM; in test [1], 79 ± 21 µM.
As for `Cc1nc([N+](=O)[O-])c(N2CCN(Cc3cn(Cc4ccc(F)cc4)nn3)CC2)n1Cc1ccccc1` [Compound 9c, 1-(N1-benzyl-2-methyl-4-nitro-imidazole-5-yl)-4-((N1-(4-fluorobenzyl)-1H-1,2,3-triazol-4-yl)methyl)piperazine], the IC50 was greater than 500 µM in test [2], greater than 500 µM in test [3], greater than 500 µM in test [4] and 24 ± 1.9 µM in test [1].
Regarding `Cc1nc([N+](=O)[O-])c(N2CCN(Cc3cn(Cc4cccc([N+](=O)[O-])c4)nn3)CC2)n1Cc1ccccc1` [Compound 9d, 1-(N1-benzyl-2-methyl-4-nitro-imidazole-5-yl)-4-((N1-(3-nitrobenzyl)-1H-1,2,3-triazol-4-yl)methyl)piperazine], the IC50 in test [1] is 40 ± 15 µM.
Take `Cc1cccc(Cn2cc(CN3CCN(c4c([N+](=O)[O-])nc(C)n4Cc4ccccc4)CC3)nn2)c1` [Compound 9e, 1-(N1-benzyl-2-methyl-4-nitro-imidazole-5-yl)-4-((N1-(3-methylbenzyl)-1H-1,2,3-triazol-4-yl)methyl)piperazine]: the IC50 in test [2] is greater than 500 µM; in test [3], greater than 500 µM; in test [4] it was greater than 500 µM; in test [1], 79 ± 21 µM.
Consider `Cc1nc([N+](=O)[O-])c(N2CCN(Cc3cn(Cc4cccc(Br)c4)nn3)CC2)n1Cc1ccccc1` [Compound 9f, 1-(N1-benzyl-2-methyl-4-nitro-imidazole-5-yl)-4-((N1-(3-bromobenzyl)-1H-1,2,3-triazol-4-yl)methyl)piperazine], for which, in test [1], the IC50 turned out to be 53 ± 60 µM.
Regarding `Cc1nc([N+](=O)[O-])c(N2CCN(Cc3cn(Cc4ccccc4[N+](=O)[O-])nn3)CC2)n1Cc1ccccc1` [Compound 9h, 1-(N1-benzyl-2-methyl-4-nitro-imidazole-5-yl)-4-((N1-(2-nitrobenzyl)-1H-1,2,3-triazol-4-yl)methyl)piperazine], the IC50 in test [2] was greater than 500 µM; in test [1], 48 ± 4 µM.
For `Cc1nc([N+](=O)[O-])c(N2CCN(Cc3cn(Cc4ccccc4Br)nn3)CC2)n1Cc1ccccc1` [Compound 9i, 1-(N1-benzyl-2-methyl-4-nitro-imidazole-5-yl)-4-((N1-(2-bromobenzyl)-1H-1,2,3-triazol-4-yl)methyl)piperazine], the IC50 in test [2] is greater than 500 µM; in test [3] it was greater than 500 µM; in test [4], greater than 500 µM; in test [1] it was 106 ± 12.3 µM.
For the compound `Cc1nc([N+](=O)[O-])c(N2CCN(Cc3cn(Cc4ccccc4F)nn3)CC2)n1Cc1ccccc1` [Compound 9j, 1-(N1-benzyl-2-methyl-4-nitro-imidazole-5-yl)-4-((N1-(2-fluorobenzyl)-1H-1,2,3-triazol-4-yl)methyl)piperazine], the IC50 in test [2] is greater than 500 µM; in test [3], greater than 500 µM; in test [4], greater than 500 µM; in test [1], 151 ± 20 µM.
In the case of `Cc1cccc(-n2cc(CN3CCN(c4c([N+](=O)[O-])nc(C)n4Cc4ccccc4)CC3)nn2)c1` [Compound 11 m, 1-(N1-benzyl-2-methyl-4-nitro-1H-imidazole-5-yl)-4-((N1-(m-tolyl)-1H-1,2,3-triazol-4-yl)methyl)piperazine], the IC50 in test [2] was greater than 500 µM; in test [3] it was greater than 500 µM; in test [4], greater than 500 µM; in test [1] it was 161 ± 16 µM.
For `Cc1nc([N+](=O)[O-])c(N2CCN(Cc3cn(-c4ccc(Br)cc4)nn3)CC2)n1Cc1ccccc1` [Compound 11a, 1-(N1-benzyl-2-methyl-4-nitro-1H-imidazole-5-yl)-4-((N1-(4-bromophenyl)-1H-1,2,3-triazol-4-yl)methyl)piperazine], the IC50 in test [2], in test [3] and in test [4] was greater than 500 µM in each case.
Take `CSc1ccccc1-n1cc(CN2CCN(c3c([N+](=O)[O-])nc(C)n3Cc3ccccc3)CC2)nn1` [Compound 11b, 1-(N1-benzyl-2-methyl-4-nitro-1H-imidazole-5-yl)-4-((N1-(2-(methylthio)phenyl)-1H-1,2,3-triazol-4-yl)methyl)piperazine]: the IC50 in test [1] was 136 ± 60 µM.
For `CCOc1ccccc1-n1cc(CN2CCN(c3c([N+](=O)[O-])nc(C)n3Cc3ccccc3)CC2)nn1` [Compound 11c, 1-(N1-benzyl-2-methyl-4-nitro-1H-imidazole-5-yl)-4-((N1-(2-ethoxyphenyl)-1H-1,2,3-triazol-4-yl)methyl)piperazine], the IC50 in test [1] was 399 ± 79 µM.
In the case of `Cc1nc([N+](=O)[O-])c(N2CCN(Cc3cn(-c4ccccc4)nn3)CC2)n1Cc1ccccc1` [Compound 11d, 1-(N1-benzyl-2-methyl-4-nitro-1H-imidazole-5-yl)-4-((N1-phenyl-1H-1,2,3-triazol-4-yl)methyl)piperazine], the half-inhibitory concentration (IC50) in test [1] stood at 312 ± 65 µM.
Same read-out and setting: the value for `Cc1ccc(-n2cc(CN3CCN(c4c([N+](=O)[O-])nc(C)n4Cc4ccccc4)CC3)nn2)cc1` [Compound 11e, 1-(N1-benzyl-2-methyl-4-nitro-1H-imidazole-5-yl)-4-((N1-(p-tolyl)-1H-1,2,3-triazol-4-yl)methyl)piperazine] was 219 ± 12 µM.
Take `COc1ccc(-n2cc(CN3CCN(c4c([N+](=O)[O-])nc(C)n4Cc4ccccc4)CC3)nn2)cc1` [Compound 11f, 1-(N1-benzyl-2-methyl-4-nitro-1H-imidazole-5-yl)-4-((N1-(4-methoxyphenyl)-1H-1,2,3-triazol-4-yl)methyl)piperazine]: the values for the IC50 in test [2] and in test [1] were greater than 500 µM and 251 ± 71 µM, respectively.
For the compound `Cc1ccccc1-n1cc(CN2CCN(c3c([N+](=O)[O-])nc(C)n3Cc3ccccc3)CC2)nn1` [Compound 11g, 1-(N1-benzyl-2-methyl-4-nitro-1H-imidazole-5-yl)-4-((N1-(o-tolyl)-1H-1,2,3-triazol-4-yl)methyl)piperazine], in test [1], the IC50 was found to be 183 ± 10 µM.
The same measure, in the same setting: the same measure for `CCc1ccccc1-n1cc(CN2CCN(c3c([N+](=O)[O-])nc(C)n3Cc3ccccc3)CC2)nn1` [Compound 11h, 1-(N1-benzyl-2-methyl-4-nitro-1H-imidazole-5-yl)-4-((N1-(2-ethylphenyl)-1H-1,2,3-triazol-4-yl)methyl)piperazine]: 88 ± 37 µM.
Consider `Cc1nc([N+](=O)[O-])c(N2CCN(Cc3cn(-c4ccccc4[N+](=O)[O-])nn3)CC2)n1Cc1ccccc1` [Compound 11i, 1-(N1-benzyl-2-methyl-4-nitro-1H-imidazole-5-yl)-4-((N1-(2-nitrophenyl)-1H-1,2,3-triazol-4-yl)methyl)piperazine], for which the values for the IC50 in test [2] and in test [1] were greater than 500 µM and 185 ± 33 µM, respectively.
For `Cc1nc([N+](=O)[O-])c(N2CCN(Cc3cn(-c4ccc([N+](=O)[O-])cc4)nn3)CC2)n1Cc1ccccc1` [Compound 11k, 1-(N1-benzyl-2-methyl-4-nitro-1H-imidazole-5-yl)-4-((N1-(4-nitrophenyl)-1H-1,2,3-triazol-4-yl)methyl)piperazine], in test [1], the IC50 turned out to be 671 ± 140 µM.
On the same count and under the same terms, the same measure for `COc1cccc(-n2cc(CN3CCN(c4c([N+](=O)[O-])nc(C)n4Cc4ccccc4)CC3)nn2)c1` [Compound 11l, 1-(N1-benzyl-2-methyl-4-nitro-1H-imidazole-5-yl)-4-((N1-(3-methoxyphenyl)-1H-1,2,3-triazol-4-yl)methyl)piperazine]: 198 ± 10 µM.
On to `Cc1nc([N+](=O)[O-])c(N2CCN(Cc3cn(-c4cccc(Cl)c4)nn3)CC2)n1Cc1ccccc1` [Compound 11n, 1-(N1-benzyl-2-methyl-4-nitro-1H-imidazole-5-yl)-4-((N1-(3-chlorophenyl)-1H-1,2,3-triazol-4-yl)methyl)piperazine], for which the half-maximal inhibitory concentration (IC50) in test [2] was greater than 500 µM; in test [1], 155 ± 70 µM.
`Cc1nc([N+](=O)[O-])c(N2CCN(Cc3cn(-c4cccc5c4CCCC5)nn3)CC2)n1Cc1ccccc1` [Compound 11o, 1-(N1-benzyl-2-methyl-4-nitro-1H-imidazole-5-yl)-4-((N1-(5,6,7,8-tetrahydronaphthalen-1-yl)-1H-1,2,3-triazol-4-yl)methyl)piperazine]: the IC50 was greater than 500 µM in test [2], greater than 500 µM in test [4] and 131 ± 30 µM in test [1].
`Cc1nc([N+](=O)[O-])c(N2CCN(Cc3cn(-c4cccc5ccccc45)nn3)CC2)n1Cc1ccccc1` [Compound 11q, 1-(N1-benzyl-2-methyl-4-nitro-1H-imidazole-5-yl)-4-((N1-(naphthalen-1-yl)-1H-1,2,3-triazol-4-yl)methyl)piperazine]: in test [1], the IC50 turned out to be 270 ± 40 µM.
